Paper PMC11855827, “High-Throughput Screening of Five Compound Libraries for Anthelmintic Activity and Toxicity Leads to the Discovery of Two Flavonoid Compounds” (International Journal of Molecular Sciences, 2025)
Like-named read-outs stand apart in the source and are kept apart here.

Test system: C. elegans
[1] = Table S2, C. elegans SS assay, 110 μM, 0 h, averages of 4 data points
[2] = Table S2, C. elegans SS assay, 110 μM, 24 h, averages of 4 data points

Structure (SMILES) | Percentage of motility inhibition 0 h [1] [%] | Percentage of motility inhibition 24 h [2] [%] | Percentage of motility inhibition 0 h (110 µM) [%] | Percentage of motility inhibition 24 h (110 µM) [%]
CO/N=C(\C(=O)N[C@@H]1C(=O)N2C(C(=O)[O-])=C(C[n+]3ccn4ncccc43)CS[C@H]12)c1nsc(N)n1.Cl [Cefozopran (hydrochloride)] | 10 | 12 |  | 
Cc1cc(O)c(C(=O)N[C@@H](C(=O)N[C@@H]2C(=O)N3C(C(=O)[O-])=C(CSc4nnnn4C)CS[C@H]23)c2ccc(O)cc2)cn1.[Na+] [Cefpiramide (sodium)] | 0 | 7 |  | 
CO/N=C(\C(=O)N[C@@H]1C(=O)N2C(C(=O)[O-])=C(C[n+]3cccc4c3CCC4)CS[C@H]12)c1csc(N)n1.O=S(=O)(O)O [Cefpirome (sulfate)] | 13 | 0 |  | 
C/C=C/C1=C(C(=O)O)N2C(=O)[C@@H](NC(=O)[C@H](N)c3ccc(O)cc3)[C@H]2SC1.O [Cefprozil (monohydrate)] | 12 | 14 |  | 
NC(=O)c1cc[n+](CC2=C(C(=O)[O-])N3C(=O)[C@@H](NC(=O)[C@@H](c4ccccc4)S(=O)(=O)[O-])[C@H]3SC2)cc1.[Na+] [Cefsulodin (sodium)] | 17 | 6 |  | 
Nc1nc(/C(=C/CC(=O)O)C(=O)N[C@@H]2C(=O)N3C(C(=O)O)=CCS[C@H]23)cs1.O.O [Ceftibuten (dihydrate)] | 19 | 5 |  | 
CO/N=C(\C(=O)N[C@@H]1C(=O)N2C(C(=O)[O-])=C(CSC(=O)c3ccco3)CS[C@H]12)c1csc(N)n1.[Na+] [Ceftiofur (sodium)] | 17 | 1 |  | 
CO/N=C(\C(=O)N[C@@H]1C(=O)N2C(C(=O)[O-])=CCS[C@H]12)c1csc(N)n1.[Na+] [Ceftizoxime (sodium)] | 0 | 3 |  | 
CO/N=C(\C(=O)N[C@@H]1C(=O)N2C(C(=O)[O-])=C(CSc3nc(=O)c([O-])nn3C)CS[C@H]12)c1csc(N)n1.CO/N=C(\C(=O)N[C@@H]1C(=O)N2C(C(=O)[O-])=C(CSc3nc(=O)c([O-])nn3C)CS[C@H]12)c1csc(N)n1.O.O.O.O.O.O.O.[Na+].[Na+].[Na+].[Na+] [Ceftriaxone (sodium salt)] |  |  | 25 | 16
CO/N=C(\C(=O)N[C@@H]1C(=O)N2C(C(=O)[O-])=C(COC(N)=O)CS[C@H]12)c1ccco1.[Na+] [Cefuroxime (sodium)] | 19 | 17 |  | 
CC[C@H]1CN2CCc3cc(OC)c(OC)cc3[C@@H]2C[C@@H]1C[C@H]1NCCc2cc(O)c(OC)cc21.Cl.Cl [Cephaeline (dihydrochloride)] | 18 | 4 |  | 
CC1=C(C(=O)O)N2C(=O)[C@@H](NC(=O)[C@H](N)c3ccccc3)[C@H]2SC1.O [Cephalexin (monohydrate)] | 8 | 0 |  | 
CC(=O)OCC1=C(C(=O)[O-])N2C(=O)[C@@H](NC(=O)Cc3cccs3)[C@H]2SC1.[Na+] [Cephalothin (sodium)] | 9 | 11 |  | 
COc1ccc2c(c[n+](C)c3c4cc5c(cc4ccc23)OCO5)c1OC.[Cl-] [Chelerythrine (chloride)] | 17 | 22 |  | 
CC(=O)O.CC(=O)O.NC(=N\CCCCCC/N=C(N)/N=C(\N)Nc1ccc(Cl)cc1)/N=C(\N)Nc1ccc(Cl)cc1 [Chlorhexidine (diacetate)] | 38 | 62 |  | 
N=C(NCCCCCCNC(=N)NC(=N)Nc1ccc(Cl)cc1)NC(=N)Nc1ccc(Cl)cc1.O=C(O)[C@H](O)[C@@H](O)[C@H](O)[C@H](O)CO.O=C(O)[C@H](O)[C@@H](O)[C@H](O)[C@H](O)CO [Chlorhexidine (digluconate)] | 39 | 46 |  | 
CN(C)[C@@H]1C(=O)C(C(N)=O)=C(O)[C@@]2(O)C(=O)C3=C(O)c4c(O)ccc(Cl)c4[C@@](C)(O)[C@H]3C[C@@H]12.Cl [Chlortetracycline (hydrochloride)] | 24 | 5 |  | 
C[C@H](CCC(=O)[O-])[C@H]1CC[C@H]2[C@@H]3[C@H](O)C[C@@H]4C[C@H](O)CC[C@]4(C)[C@H]3C[C@H](O)[C@]12C.[Na+] [Cholic acid (sodium)] | 0 | 5 |  | 
C[N+](C)(C)CCO.O=C([O-])C(O)C(O)C(=O)O (centres unmarked) [Choline (bitartrate)] | 0 | 0 |  | 
C[N+](C)(C)CCO.[Cl-] [Choline (chloride)] | 51 | 17 |  | 
O=C(O)[C@H]1O[C@@H](Oc2cc(O)c3c(=O)cc(-c4ccccc4)oc3c2)[C@H](O)[C@@H](O)[C@@H]1O [Chrysin‐7‐O‐glucuronide] | 0 | 37 |  | 
COc1cc(-c2oc3cc(OC)c(OC)c(O)c3c(=O)c2OC)ccc1O [Chrysosplenetin] | 17 | 6 |  | 

Structure (SMILES) | Percentage of motility inhibition 0 h [1] [%] | Percentage of motility inhibition 24 h [2] [%] | Percentage of motility inhibition 0 h (110 µM) [%] | Percentage of motility inhibition 24 h (110 µM) [%]
C[C@H](CC(=O)[C@@H]1OC1(C)C)[C@H]1C(=O)C[C@@]2(C)C3=CC[C@H]4C(C)(C)[C@@H](O[C@@H]5OC[C@@H](O)[C@H](O)[C@H]5O)CC[C@@]45C[C@@]35[C@@H](O)C[C@]12C [Cimicifugoside H-1] | 0 | 3 |  | 
C[C@@H]1C[C@H]2O[C@@]3(O[C@@H]2C(C)(C)O)[C@H](O)[C@@]2(C)[C@@H]4CC[C@H]5C(C)(C)[C@@H](O[C@@H]6OC[C@@H](O)[C@H](O)[C@H]6O)CC[C@@]56C[C@@]46CC[C@]2(C)[C@@H]13 [Cimigenoside] | 30 | 17 |  | 
CC(=O)O[C@@H]1C[C@@]23C[C@@]24CC[C@H](O[C@@H]2OC[C@H](O)[C@H](O)[C@H]2O)C(C)(C)[C@@H]4CC[C@H]3[C@]2(C)[C@@H](O)[C@]34O[C@H](C[C@@H](C)[C@@H]3[C@@]12C)[C@@H](C(C)(C)O)O4 [Cimiracemoside D] | 0 | 0 |  | 
Oc1cc(O)c2c(c1)O[C@@]1(c3ccc(O)c(O)c3)Oc3cc(O)c4c(c3[C@@H]2[C@H]1O)O[C@H](c1ccc(O)c(O)c1)[C@H](O)[C@H]4c1c(O)cc(O)c2c1O[C@H](c1ccc(O)c(O)c1)[C@H](O)C2 [Cinnamtannin B‐1] | 0 | 4 |  | 
C[N+](C)(C)CCOP(=O)([O-])OP(=O)([O-])OC[C@H]1O[C@@H](n2ccc(N)nc2=O)[C@H](O)[C@@H]1O.[Na+] [Citicoline (sodium)] | 4 | 0 |  | 
O.O=C(O)CC(O)(CC(=O)O)C(=O)O [Citric acid (monohydrate)] | 63 | 32 |  | 
N.N.N.O=C(O)CC(O)(CC(=O)O)C(=O)O [Citric acid (triammonium)] | 8 | 0 |  | 
O.O=C([O-])CC(O)(CC(=O)[O-])C(=O)[O-].[K+].[K+].[K+] [Citric acid (tripotassium hydrate)] | 28 | 4 |  | 
O=C([O-])CC(O)(CC(=O)[O-])C(=O)[O-].[Na+].[Na+].[Na+] [Citric acid (trisodium)] | 8 | 2 |  | 
Cl.Clc1ccc(Cn2c(CN3CCCC3)nc3ccccc32)cc1 [Clemizole (hydrochloride)] | 25 | 69 |  | 
CCC[C@@H]1C[C@@H](C(=O)N[C@@H]([C@H]2O[C@H](SC)[C@H](O)[C@@H](O)[C@H]2O)[C@H](C)Cl)N(C)C1.Cl [Clindamycin (hydrochloride)] | 28 | 3 |  | 
Nc1ncnc(N[C@@H]2O[C@H](CO)[C@@H](O)[C@H]2O)c1[N+](=O)[O-] [Clitocine] | 0 | 4 |  | 
O=C(/C=C\c1ccc(O)c(O)c1)N[C@@H](Cc1ccc(O)c(O)c1)C(=O)O [Clovamide] | 2 | 0 |  | 
Cc1onc(-c2ccccc2Cl)c1C(=O)N[C@@H]1C(=O)N2[C@@H]1SC(C)(C)[C@@H]2C(=O)[O-].O.[Na+] [Cloxacillin (sodium monohydrate)] | 14 | 4 |  | 
C[C@@]12C[C@@H](c3ccoc3)OC(=O)[C@@H]1CC[C@]1(C)[C@H]2[C@@H]2C=C[C@@]1(O)C(=O)O2 [Columbin] | 0 | 1 |  | 
C=C[C@]1(C)C=C2CC[C@H]3[C@@](C)(CCC[C@@]3(C)C(=O)O)[C@@H]2CC1 [Continentalic acid] | 36 | 24 |  | 
O=S(=O)([O-])O.c1c2c(cc3c1OCO3)-c1cc3ccc4c(c3c[n+]1CC2)OCO4 [Coptisine (Sulfate)] | 0 | 9 |  | 
[Cl-].c1c2c(cc3c1OCO3)-c1cc3ccc4c(c3c[n+]1CC2)OCO4 [Coptisine (chloride)] | 1 | 6 |  | 
C=C[C@H]1[C@H](O[C@@H]2O[C@H](CO)[C@@H](O)[C@H](O)[C@H]2O)OC=C(C(=O)OC)[C@H]1CCOC(=O)c1cc(O)c(O)c(O)c1 [Cornuside] | 0 | 24 |  | 
COc1cc2c(cc1OC)[C@H]1[C@@H](C)c3ccc(OC)c(OC)c3CN1CC2 [Corydaline] | 0 | 8 |  | 
CC(C)=CCC/C(C)=C/Cc1cc(-c2coc3cc(O)ccc3c2=O)ccc1O [Corylifol A] | 40 | 4 |  | 
